According to article PMC10645073, “Interaction of gallium, indium and vanadyl diacetylcurcumin complexes with lysozyme: mechanistic aspects and evaluation of antiamyloidogenic activity” (Royal Society Open Science, 2023):

How the values were obtained:
[1] = target: T1, hen egg white lysozyme (HEWL) (Gallus gallus, UniProt P00698); assay: Intrinsic fluorescence quenching of HEWL (Stern-Volmer, double logarithmic and van't Hoff analysis); format: binding; details: for KSV (Stern-Volmer quenching constant): HEWL 3 µM; for kq (bimolecular quenching rate constant): kq = KSV/τ0, τ0 10^−8 s; for blue shift of HEWL emission maximum on quenching: excitation 295 nm, emission maximum 345 nm; for fluorescence quenching mechanism: from KSV versus temperature and kq; for main forces / modes of interaction stabilizing the bioconjugate: from signs of ΔH^0 and ΔS^0; for binding constant, order of magnitude: summary of table 1; for ΔH^0 (enthalpy change of binding) / ΔS^0 (entropy change of binding): van't Hoff plot over 293–308 K
T1 construct: whose 129 amino acid residues are linked together by four disulfide bridges to form a single polypeptide chain; purchased Sigma-Aldrich L6876; host or cells: hen egg white (natural source, per the protein's name)
T1 sequence (P00698 19-147): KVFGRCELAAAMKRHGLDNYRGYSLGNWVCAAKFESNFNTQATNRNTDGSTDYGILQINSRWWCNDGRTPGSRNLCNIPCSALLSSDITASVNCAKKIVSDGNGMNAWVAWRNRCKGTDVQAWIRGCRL
Protocol: The intrinsic fluorescence spectra of HEWL (3 µM) in the absence and presence of Ga(DAC)3, In(DAC)3 and VO(DAC)2 complexes were collected using a Varian Cary Eclipse fluorescence spectrophotometer equipped with a 10 mm quartz cell by adjusting the excitation wavelength to 295 nm and setting the width of both excitation and emission slits at 5 nm. After adding the mentioned concentrations of the metal complexes of diacetylcurcumin to HEWL solution, the samples were scanned in the wavelength range of 300–500 nm. Corrections were made for the inner filter effect on the fluorescence spectra according to the following equation: Fcor=Fobs×10^(Aex+Aem)/2, where Fcor is corrected fluorescence intensity, Fobs is the observed (uncorrected) fluorescence intensity, Aex is the absorbance at the fluorescence excitation wavelength and Aem is the absorbance at the selected fluorescence emission wavelength.
The fluorescence quenching process of HEWL in the presence of three metal complexes of diacetylcurcumin can be quantified according to the well-known Stern-Volmer equation:3.1 F0/F=1+KSV[Q]=1+kqτ0[Q],
where F0 and F represent the intrinsic emission intensities of HEWL fluorophores, respectively, in the absence and presence of the metal complexes of diacetylcurcumin, and [Q] is the molar concentration of quencher. KSV, kq and τ0 denote the Stern-Volmer quenching constant, bimolecular quenching rate constant, and the average lifetime of fluorophore without quencher, respectively. The value of KSV, as a parameter of the sensitivity of the fluorophore to a quencher, can be estimated from the slope of the linear plot of F0/F as a function of [Q] (figure 2d,e,f; electronic supplementary material, figure S1). To obtain more accurate quantification of fluorescence data, the total area of the emission fluorescence peaks (S0 and S) was applied instead of the emission fluorescence intensities (F0 and F). The fluorescence quenching phenomenon can be generally divided into two distinct classes: static quenching and dynamic quenching. Owing to the reciprocal and direct correlations between the KSV parameter and temperature, respectively, for static and dynamic quenching, the observed trend in the KSV value versus temperature can be used to distinguish these mechanisms from each other. In dynamic quenching, an increase in temperature leads to faster diffusion of molecules by which weakly bound nonfluorescent complexes are further dissociated, and the value of KSV increases. From the data recorded in table 1, it can be seen that the KSV value of HEWL/Ga(DAC)3 and HEWL/In(DAC)3 systems decreases as temperature increases, while it increases with increasing temperature for the HEWL/VO(DAC)2 system. […] Considering a lifetime value of 10^−8 s for the native fluorophores, [27] the equation kq = KSV/τ0 gives the kq values greater than the diffusion-limited quenching value of 2.0 × 10 ^+ 10 M^−1 s^−1 for all systems.
Assuming that all the binding sites of HEWL are identical and independent and an equilibrium interaction is established between HEWL and each of the metal complexes of diacetylcurcumin, the fluorescence quenching process can be further analysed by the following double logarithmic equation:3.2 log(F0−F/F)=logKb+nlog[Q], where Kb and n represent the binding constant and number of binding sites on each HEWL molecule, respectively. Plotting log[(F0 − F)/F] versus log[Q] produces a straight line whose slope and intercept can be used respectively to estimate the values of n and Kb (electronic supplementary material, figures S2A, S2B, S2C and S3). […] In other words, the resulting bioconjugates are the product of the interaction between HEWL and the metal complexes of diacetylcurcumin with a 1 : 1 stoichiometry. […]

[2] = target: T2, HEWL amyloid fibrils (Gallus gallus, UniProt P00698); assay: Thioflavin T fluorescence assay of HEWL amyloid fibrillation; format: biochemical, hen; details: HEWL 70 µM, complex 10 µM; for effect on amyloid fibrillation of HEWL (ThT fluorescence): pH 2.0, 140 min incubation
T2 construct: whose 129 amino acid residues are linked together by four disulfide bridges to form a single polypeptide chain; purchased Sigma-Aldrich L6876; host or cells: hen egg white (natural source, per the protein's name)
T2 sequence (P00698 19-147): as above
Protocol: To prepare HEWL amyloid fibrils, a solution of the protein (5 ml, 70 µM) was prepared in 100 mM PBS, and the pH adjusted to 2.0 using hydrochloric acid. The solution was then incubated in a shaker incubator bath at 450 rpm and 58°C for 140 min. To investigate the effect of the diacetylcurcumin-based metal complexes on HEWL amyloid fibrillation, three separate samples, each containing HEWL (70 µM) and one of the metal complexes of diacetylcurcumin (10 µM), were prepared and incubated under the above conditions.
For ThT assay, a 17 µl volume of the incubated HEWL (70 µM) samples was added to 983 µl of ThT solution for the final HEWL and ThT concentrations of 1.2 µM and 20 µM, respectively. ThT spectra containing the incubated HEWL/metal complexes were recorded 5 min after recording the spectrum of ThT solution as control solution. All spectra were recorded using a Varian Cary Eclipse fluorescence spectrophotometer at 25°C. ThT solution was excited with a 440 nm wavelength and emission fluorescence spectra were recorded in the wavelength range of 450–600 nm.
Enhancement of ThT fluorescence intensity upon its rapid and strong binding to the cross β-sheet structure of amyloid fibrils is important evidence to confirm the amyloid fibril formation of proteins. The inhibitory activities of Ga(DAC)3, In(DAC)3 and VO(DAC)2 complexes on the amyloid fibrillation process of HEWL were explored by ThT fluorescence assay over 140 min period of incubation at pH 2.0. The kinetics of the fibrillation process in the absence and presence of the considered complexes is depicted in figure 4a.
To estimate the lag time and apparent rate constant for growth of fibrils, the following equation was employed on the ThT fluorescence data: F=Fmin+Fmax/1+e^−(t−t0/τ),
where F is the fluorescence intensity in t, Fmin and Fmax are fluorescence intensities in initial time and saturation phase, respectively, t is incubation time and t0 is required time to get 50% of maximal fluorescence intensity. The apparent rate constant, kapp, is given by 1/τ and the lag time is approximated by t0 − 2τ. […]

[3] = test system: mouse lymphoma cells; parameters: method as in PMID 16171869; details: read-out: IC50 cytotoxicity; cited from earlier work

Row | n (number of binding sites on each HEWL molecule) ([1]; T 293 K) | ΔG^0 (Gibbs free energy change of binding) ([1]; T 293 K) [kcal/mol] | KSV (Stern-Volmer quenching constant) ([1]; T 293 K) | kq (bimolecular quenching rate constant) ([1]; T 293 K) | n (number of binding sites on each HEWL molecule) ([1]; T 303 K) | ΔG^0 (Gibbs free energy change of binding) ([1]; T 303 K) [kcal/mol] | KSV (Stern-Volmer quenching constant) ([1]; T 303 K) | kq (bimolecular quenching rate constant) ([1]; T 303 K) | n (number of binding sites on each HEWL molecule) ([1]; T 308 K) | ΔG^0 (Gibbs free energy change of binding) ([1]; T 308 K) [kcal/mol] | KSV (Stern-Volmer quenching constant) ([1]; T 308 K) | kq (bimolecular quenching rate constant) ([1]; T 308 K) | blue shift of HEWL emission maximum on quenching [1] [nm] | binding constant, order of magnitude [1] | ΔH^0 (enthalpy change of binding) [1] [kcal/mol] | ΔS^0 (entropy change of binding) [1] [J mol^−1 K^−1] | effect on amyloid fibrillation of HEWL (ThT fluorescence) [2] | SMILES | fluorescence quenching mechanism [1] | main forces / modes of interaction stabilizing the bioconjugate [1] | IC50 [3] [µM] | other results
1 | (1.26 ± 0.01) | -8.368 ± 0.0024 | (0.10 ± 0.00) × 10^+6 M^−1 | (0.10 ± 0.00) × 10^+14 M^−1 s^−1 | (1.25 ± 0.04) | -8.65 ± 0.0024 | (9.61 ± 0.10) × 10^+5 M^−1 | (9.61 ± 0.10) × 10^+13 M^−1 s^−1 | (1.25 ± 0.02) | -8.788 ± 0.0024 | (1.04 ± 0.02) × 10^+5 M^−1 | (1.04 ± 0.02) × 10^+13 M^−1 s^−1 | 4 | 10^+6 M^−1 | -0.148 ± 0 | 117.38 ± 0.01 | considerable delaying effect | COc1cc(C=CC(=O)C=C([O-])C=Cc2ccc(OC(C)=O)c(OC)c2)ccc1OC(C)=O.COc1cc(C=CC(=O)C=C([O-])C=Cc2ccc(OC(C)=O)c(OC)c2)ccc1OC(C)=O.COc1cc(C=CC(=O)C=C([O-])C=Cc2ccc(OC(C)=O)c(OC)c2)ccc1OC(C)=O.[In+3] [In(DAC)3, indium diacetylcurcumin] | static mechanism | electrostatic interactions | 20 to 25 | effect on lag time and t0 of fibrillation ([2]; pH 2.0): significant increase in the lag time and t0
2 | (1.35 ± 0.04) | -8.217 ± 0.858 | (2.70 ± 0.02) × 10^+4 M^−1 | (2.70 ± 0.02) × 10^+12 M^−1 s^−1 | (0.93 ± 0.02) | -5.767 ± 0.858 | (2.78 ± 0.03) × 10^+4 M^−1 | (2.78 ± 0.03) × 10^+12 M^−1 s^−1 | (0.75 ± 0.04) | -4.543 ± 0.858 | (2.80 ± 0.02) × 10^+4 M^−1 | (2.80 ± 0.02) × 10^+12 M^−1 s^−1 | 2 | 10^+6 to 10^+3 M^−1 | -79.988 ± 0.246 | −1024.87 ± 3.44 | highest inhibitory effect | COc1cc(/C=C/C(=O)C=C([O-])/C=C/c2ccc(OC(C)=O)c(OC)c2)ccc1OC(C)=O.COc1cc(/C=C/C(=O)C=C([O-])/C=C/c2ccc(OC(C)=O)c(OC)c2)ccc1OC(C)=O.[O]=[V+2] [VO(DAC)2, vanadyl diacetylcurcumin] | dual mechanism, including both static and dynamic quenching | van der Waals interactions and hydrogen bonds | 7 to 10 | n (number of binding sites on each HEWL molecule) ([1]; T 298 K): (1.15 ± 0.03); ΔG^0 (Gibbs free energy change of binding) ([1]; T 298 K): -6.993 ± 0.858 kcal/mol; KSV (Stern-Volmer quenching constant) ([1]; T 298 K): (2.70 ± 0.04) × 10^+4 M^−1; kq (bimolecular quenching rate constant) ([1]; T 298 K): (2.70 ± 0.04) × 10^+12 M^−1 s^−1
